Assay results reported in patent US20250098680A1 (priority 2022, published 2025).

Columns and labels:
[1] = test system: Pseudoperonospora cubensis; test: Microplate-based cucumber leaf disc screening against Pseudoperonospora cubensis; type: cell-based
Method: Background: Pseudoperonospora cubensis is an obligatory pathogen from Oomycetes which is very difficult to grow on synthetic medium. Therefore, the bioactivity screening system based on leaf discs prepared from detached cucumber leaves were used.
Summary: dihydroquinidine or dihydroquinine were dissolved in DMSO were added to cucumber leaf discs infected with Pseudoperonospora and the disease progress was monitored by visual inspection.
General description: Inoculation and maintenance on cucumber leaves, preparation of spore suspension, their growth on leaf discs in microplates and inspection by magnifying glass of Pseudoperonospora cubensis severity of infection.
• 1) Grow plants, in the growth room (27° C.), high light radiation. • 2) Use standard garden soil. • 3) Plant cucumber seeds. • 4) Add fertilizer once a week.
• 1) Put 3 (double) pieces of sterile paper in a square Petri dish. • 2) Work in sterile conditions. • 3) Use leaves from healthy plants. The leaves should be young and healthy, their size should fit to the square plate. • 4) Cut the leaves by a sterile scalpel, leaving a long stem. • 5) Add 10 ml sterile distilled water to wet the paper (the paper should be maximally wet, but without additional dripping water), discard excess of water. […]

Phytophthora infestans [2] = type: in vivo, Phytophthora infestans on tomato; details: tomato seedlings, greenhouse, preventative spraying, Formulation 15 or 16, four independent experiments (FIGS. 1-4)
Phytophthora infestans [3] = type: cell-based; details: for effective pesticide against Phytophthora infestans (summary in words): summary of in vitro screening; for Bio-activity value Phytophthora infestans: tomato leaf discs, compound dissolved in DMSO, visual score 5 days, % from maximal value
Cucumber downey mildew = details: described in JP2003081945A; cited from earlier work

CCC1C[N@]2CC[C@H]1C[C@@H]2C(O)c1ccnc2ccc(OC)cc12 (stereo in doubt) [DIHYDROQUINIDINE, (S)-[(2R,4S,5R)-5-ethyl-1-azabicyclo[2.2.2]octan-2-yl](6-methoxyquinolin-4-yl) methanol]
Bio-activity value Pseudoperonospora cubensis ([1]; cucumber leaf discs, compound dissolved in DMSO, visual score 7 days after inoculation, % from maximal value): 66%
effective pesticide against Pseudoperonospora cubensis (summary in words) ([1]; summary of in vitro screening): effective
efficacy of control of Phytophthora infection (Phytophthora infestans [2]): up to 89.38%
effective pesticide against Phytophthora infestans (summary in words) (Phytophthora infestans [3]): effective
Bio-activity value Phytophthora infestans (Phytophthora infestans [3]): 100%

CCC1C[N@]2CC[C@H]1C[C@H]2C(O)c1ccnc2ccc(OC)cc12 (stereo in doubt) [DIHYDROQUININE, (R)-[(2S,4S,5R)-5-ethyl-1-azabicyclo[2.2.2]octan-2-yl](6-methoxyquinolin-4-yl) methanol]
effective pesticide against Phytophthora infestans (summary in words) (Phytophthora infestans [3]): affective
Bio-activity value Phytophthora infestans (Phytophthora infestans [3]): 83%

C=C[C@H]1C[N@@]2CC[C@H]1C[C@H]2[C@H](O)c1ccnc2ccc(OC)cc12 [quinine]
bioactivity against Cucumber downey mildew (Cucumber downey mildew): fungicidal bioactivity
